# Read-outs that look alike come from different tables or passages of the source.
# What was measured:
# PARP-1 enzyme = target: T1, PARP-1 enzyme (Homo sapiens, UniProt P09874); assay: biochemical; details: mean ± SD, n=3; for inhibition at 0.5 µM: PARP-1, measured at the conc. of 0.5 μM, read-out: Inhibition rate (%)
# T1 construct: purchased Trevigen 4690–096-K
# Experimental: Olaparib was used as positive control. […] Then, the standard curve was drawn and the inhibition rate of each test compound was calculated.
# [1] = tested on: breast cancer cell line MDA-MB-436; assay: MTT assay for cell growth inhibition; format: cell-based; details: Homo sapiens, read-out: EC50 (μM) MDA-MB-436 cell inhibitory activity
# Experimental: The anti-proliferative activities of synthesized compounds were assessed against breast cancer cell line MDA-MB-436 by the 3-(4, 5-Dimethylthiazol-2-yl)-2,5-diphenyltetrazolium bromide (MTT) assay. The MDA-MB-436 cell was purchased from Chinese Academy of Sciences. […]. After treated with compounds for 72 h, cells were incubated with 20 μL of 5 mg/mL MTT for 4 h. The culture medium was removed, and 150 μL DMSO was added to dissolve the formazan crystals. Wells containing only media were used for background correction. The optical density was measured spectrophotometrically at 490 nm. EC50 values were calculated using GraphPad Prism 6 software. Data were expressed as mean ± SEM.
# [2] = target: T2, BChE from equine serum (eqBChE) (Equus caballus, UniProt P81908); assay: biochemical
# T2 construct: butyrylcholinesterase (eqBChE, from equine serum); purchased Sigma-Aldrich; host or cells: equine serum
# T2 sequence (P81908 whole entry): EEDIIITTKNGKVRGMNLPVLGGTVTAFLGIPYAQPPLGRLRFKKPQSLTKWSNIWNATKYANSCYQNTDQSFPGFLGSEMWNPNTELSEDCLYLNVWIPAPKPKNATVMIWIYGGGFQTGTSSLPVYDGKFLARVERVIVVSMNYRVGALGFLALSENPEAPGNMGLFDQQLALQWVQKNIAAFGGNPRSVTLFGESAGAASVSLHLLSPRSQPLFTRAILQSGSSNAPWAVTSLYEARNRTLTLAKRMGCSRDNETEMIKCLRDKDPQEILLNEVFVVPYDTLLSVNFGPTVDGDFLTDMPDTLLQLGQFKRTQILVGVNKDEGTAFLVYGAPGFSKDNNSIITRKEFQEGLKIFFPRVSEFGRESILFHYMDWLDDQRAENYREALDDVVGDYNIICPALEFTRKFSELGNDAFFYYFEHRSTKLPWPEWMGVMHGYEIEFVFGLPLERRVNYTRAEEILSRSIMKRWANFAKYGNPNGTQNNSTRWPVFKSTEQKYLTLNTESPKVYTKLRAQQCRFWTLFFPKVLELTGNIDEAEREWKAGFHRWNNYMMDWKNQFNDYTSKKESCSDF
# Experimental: (§1) The test compounds were dissolved in a minimum volume of DMSO (1%) and were diluted using sodium phosphate buffer (0.1 M, pH 7.4). A reaction mixture containing 20 μL sodium phosphate buffer, 100 μL DTMB (1 mM) and 40 μL AChE (0.2 U/Ml)/BChE (0.3 U/mL) was incubated with 20 μL of various concentrations of test compounds at 37 °C for 15 min followed by the addition of the substrate (20 μL) acetylthiocholine iodide (1 mM) or S-butyrylthiocholine iodide (1 mM) and incubation for another 3 min. […] The inhibition per cent was calculated by the following expression: (1-Ai/Ac) × 100, where Ai and Ac were the absorbance obtained for AChE/BChE in the presence and absence of inhibitors, respectively. […]
# [3] = target: T3, AChE from electric eel (EeAChE) (Electrophorus electricus, UniProt O42275); assay: biochemical
# T3 construct: purchased Sigma-Aldrich
# T3 sequence (O42275 24-633): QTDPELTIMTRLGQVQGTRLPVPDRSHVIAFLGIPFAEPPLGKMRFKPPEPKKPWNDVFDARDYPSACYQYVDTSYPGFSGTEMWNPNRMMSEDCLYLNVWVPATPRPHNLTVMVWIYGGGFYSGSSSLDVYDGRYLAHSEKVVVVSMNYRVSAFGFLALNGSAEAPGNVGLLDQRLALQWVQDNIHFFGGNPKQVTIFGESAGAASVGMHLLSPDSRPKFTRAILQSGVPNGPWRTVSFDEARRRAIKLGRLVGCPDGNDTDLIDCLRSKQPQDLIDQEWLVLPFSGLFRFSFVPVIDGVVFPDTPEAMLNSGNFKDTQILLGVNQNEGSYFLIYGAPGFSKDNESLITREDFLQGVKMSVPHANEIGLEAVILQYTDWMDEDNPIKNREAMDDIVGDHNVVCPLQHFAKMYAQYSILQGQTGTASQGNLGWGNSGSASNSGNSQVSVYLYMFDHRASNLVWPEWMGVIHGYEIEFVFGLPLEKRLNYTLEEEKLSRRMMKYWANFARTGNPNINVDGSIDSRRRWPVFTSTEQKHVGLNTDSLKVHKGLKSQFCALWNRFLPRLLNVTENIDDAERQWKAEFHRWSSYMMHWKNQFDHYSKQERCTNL
# Experimental: as §1
# [4] = MDA-MB-436, MTT, incubated for 72 h, mean ± SD, n=3, concentration required to reduce cell proliferation by 50%
# [5] = BChE from equine serum, mean ± SD, n=3, read-out: IC50 (μM) BChE
# [6] = AChE from electric eel, mean ± SD, n=3, read-out: IC50 (μM) AChE
# T1 sequence (P09874 whole entry): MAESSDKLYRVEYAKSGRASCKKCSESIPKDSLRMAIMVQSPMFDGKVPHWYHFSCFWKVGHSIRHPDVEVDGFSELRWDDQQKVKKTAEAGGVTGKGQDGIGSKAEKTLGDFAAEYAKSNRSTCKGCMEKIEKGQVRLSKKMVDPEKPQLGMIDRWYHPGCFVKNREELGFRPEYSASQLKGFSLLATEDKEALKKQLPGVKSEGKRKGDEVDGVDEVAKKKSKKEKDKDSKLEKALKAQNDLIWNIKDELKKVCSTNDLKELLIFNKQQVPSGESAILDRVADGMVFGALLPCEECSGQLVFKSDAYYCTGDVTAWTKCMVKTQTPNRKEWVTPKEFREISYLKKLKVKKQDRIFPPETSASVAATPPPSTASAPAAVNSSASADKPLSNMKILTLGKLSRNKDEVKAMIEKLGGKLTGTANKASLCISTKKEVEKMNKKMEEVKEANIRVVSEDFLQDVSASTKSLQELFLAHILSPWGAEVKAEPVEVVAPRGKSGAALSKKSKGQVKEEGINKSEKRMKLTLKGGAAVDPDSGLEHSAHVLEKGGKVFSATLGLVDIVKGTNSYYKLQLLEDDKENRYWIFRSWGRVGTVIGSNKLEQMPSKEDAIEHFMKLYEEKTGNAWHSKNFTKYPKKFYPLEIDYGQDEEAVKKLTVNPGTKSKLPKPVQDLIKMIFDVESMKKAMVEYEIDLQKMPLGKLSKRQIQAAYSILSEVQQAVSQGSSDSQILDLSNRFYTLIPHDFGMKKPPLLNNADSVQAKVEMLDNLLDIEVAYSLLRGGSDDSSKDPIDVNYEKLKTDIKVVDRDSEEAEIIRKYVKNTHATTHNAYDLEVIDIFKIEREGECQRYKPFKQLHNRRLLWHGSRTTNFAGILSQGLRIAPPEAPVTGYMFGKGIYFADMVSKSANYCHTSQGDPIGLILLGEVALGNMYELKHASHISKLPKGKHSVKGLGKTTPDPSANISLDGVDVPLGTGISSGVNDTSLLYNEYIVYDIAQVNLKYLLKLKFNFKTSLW
SMILES,inhibition at 0.5 µM (PARP-1 enzyme) [%],"EC50 [1, 4] [µM]","IC50 [2, 5] [µM]","IC50 [3, 6] [µM]",IC50 (PARP-1 enzyme) [nM],"EC50 ([1]; MDA-MB-436, 72 h) [µM]",IC50 [2] [µM],IC50 [3] [µM]
"O=C(/C=C/c1ccco1)N1CCN(C(=O)c2cc(Cc3n[nH]c(=O)c4ccccc34)ccc2F)CC1 [5o, (E)-4-{[3-[4-(3-(furan-2-yl)acryloyl)piperazine-1-carbonyl]-4-fluorophenyl]methyl} -2H -phthalazin-1-one]",65.2 ± 5.98,32.2 ± 3.58,77.6 ± 9.06,114 ± 14.9,–,–,–,–
"COc1cc(/C=C/C(=O)N2CCN(C(=O)c3cc(Cc4n[nH]c(=O)c5ccccc45)ccc3F)CC2)cc(OC)c1OC [5n, (E)-4-{[3-[4–(3-(3,4,5-trimethoxyphenyl)acryloyl)piperazine-1-carbonyl]-4-fluorophenyl]methyl} -2H -phthalazin-1-one]",66 ± 4.82,31.2 ± 4.12,65.2 ± 1.08,99.1 ± 2.21,–,–,–,–
"O=C(/C=C/c1ccc(Cl)cc1)N1CCN(C(=O)c2cc(Cc3n[nH]c(=O)c4ccccc34)ccc2F)CC1 [5j, (E)-4-{[3-[4–(3-(4-chlorophenyl)acryloyl)piperazine-1-carbonyl]-4-fluorophenyl]methyl} -2H -phthalazin-1-one]",75.5 ± 4.54,45.2 ± 1.68,37.1 ± 2.37,86.5 ± 5.12,–,–,–,–
"O=C(/C=C/c1ccc(C(F)(F)F)cc1)N1CCN(C(=O)c2cc(Cc3n[nH]c(=O)c4ccccc34)ccc2F)CC1 [5h, (E)-4-{[3-[4–(3-(4-trifluoromethylphenyl)acryloyl)piperazine-1-carbonyl]-4-fluorophenyl]methyl} -2H -phthalazin-1-one]",89.5 ± 12.6,14.8 ± 1.42,56.8 ± 4.36,136 ± 12.5,295 ± 8.25,–,–,–
"COc1ccc(/C=C/C(=O)N2CCN(C(=O)c3cc(Cc4n[nH]c(=O)c5ccccc45)ccc3F)CC2)cc1 [5c, (E)-4-{[3-[4–(3-(4-methoxyphenyl)acryloyl)piperazine-1-carbonyl]-4-fluorophenyl]methyl} -2H-phthalazin-1-one]",89.2 ± 10.6,14.2 ± 3.16,179 ± 5.89,55.8 ± 0.6,144 ± 5.26,–,–,–
"COc1ccc(OC)c(/C=C/C(=O)N2CCN(C(=O)c3cc(Cc4n[nH]c(=O)c5ccccc45)ccc3F)CC2)c1 [5f, (E)-4-{[3-[4–(3-(2,5-dimethoxyphenyl)acryloyl)piperazine-1-carbonyl]-4-fluorophenyl]methyl} -2H-phthalazin-1-one]",75.6 ± 3.61,30.2 ± 3.25,35.7 ± 2.98,76.9 ± 4.13,–,–,–,–
"O=C(/C=C/c1ccccc1)N1CCN(C(=O)c2cc(Cc3n[nH]c(=O)c4ccccc34)ccc2F)CC1 [5a, (E)-4-{[3-[4-(3-phenylacryloyl)piperazine-1-carbonyl]-4-fluorophenyl]methyl}-2H-phthalazin-1-one]",75.2 ± 4.84,38.2 ± 2.15,22.4 ± 1.19,52.9 ± 3.02,–,–,–,–
"O=C(/C=C/c1ccc([N+](=O)[O-])cc1)N1CCN(C(=O)c2cc(Cc3n[nH]c(=O)c4ccccc34)ccc2F)CC1 [5m, (E)-4-{[3-[4–(3-(4-nitrophenyl)acryloyl)piperazine-1-carbonyl]-4-fluorophenyl]methyl} -2H -phthalazin-1-one]",93.2 ± 5.28,14 ± 1.28,5.93 ± 0.19,12.2 ± 0.49,37.9 ± 1.89,–,–,–
O=C(c1cc(Cc2n[nH]c(=O)c3ccccc23)ccc1F)N1CCN(C(=O)C2CC2)CC1 [Olaparib],–,–,34.4 ± 0.64,50.95 ± 0.46,–,8.63 ± 1.25,–,–
"O=C(/C=C/c1ccc(Br)cc1)N1CCN(C(=O)c2cc(Cc3n[nH]c(=O)c4ccccc34)ccc2F)CC1 [5k, (E)-4-{[3-[4–(3-(4-bromophenyl)acryloyl)piperazine-1-carbonyl]-4-fluorophenyl]methyl} -2H -phthalazin-1-one]",43.2 ± 6.54,112 ± 5.24,45.8 ± 3.76,80.7 ± 4.87,–,–,–,–
"COc1ccccc1/C=C/C(=O)N1CCN(C(=O)c2cc(Cc3n[nH]c(=O)c4ccccc34)ccc2F)CC1 [5e, (E)-4-{[3-[4-(3-(2-methoxyphenyl)acryloyl)piperazine-1-carbonyl]-4-fluorophenyl]methyl}-2H-phthalazin-1-one]",62.6 ± 3.65,44.2 ± 1.95,26.4 ± 1.93,56.9 ± 4.3,–,–,–,–
"CN(C)C(=O)Oc1cccc([N+](C)(C)C)c1 [Neostigmine, reference compound]",–,–,–,–,–,–,12 ± 0.45,0.04 ± 0.01
"O=C(/C=C/c1ccc(F)cc1)N1CCN(C(=O)c2cc(Cc3n[nH]c(=O)c4ccccc34)ccc2F)CC1 [5g, (E)-4-{[3-[4–(3-(4-fluorophenyl)acryloyl)piperazine-1-carbonyl]-4-fluorophenyl]methyl} -2H -phthalazin-1-one]",85.6 ± 3.69,13 ± 2.14,105 ± 12.5,173 ± 30,397 ± 7.01,–,–,–
"Cc1ccc(/C=C/C(=O)N2CCN(C(=O)c3cc(Cc4n[nH]c(=O)c5ccccc45)ccc3F)CC2)cc1 [5d, (E)-4-{[3-[4-(3-(4-methylphenyl)acryloyl)piperazine-1-carbonyl]-4-fluorophenyl]methyl} -2H-phthalazin-1-one]",64.2 ± 4.59,35.1 ± 3.42,27.8 ± 0.87,72 ± 3.84,–,–,–,–
"O=C(/C=C/c1cccc(F)c1)N1CCN(C(=O)c2cc(Cc3n[nH]c(=O)c4ccccc34)ccc2F)CC1 [5i, (E)-4-{[3-[4–(3-(3-fluorophenyl)acryloyl)piperazine-1-carbonyl]-4-fluorophenyl]methyl} -2H -phthalazin-1-one]",88.2 ± 5.24,14.2 ± 5.21,33.4 ± 4.14,110 ± 9.18,267 ± 9.32,–,–,–
"COc1ccc(/C=C/C(=O)N2CCN(C(=O)c3cc(Cc4n[nH]c(=O)c5ccccc45)ccc3F)CC2)cc1OC [5b, (E)-4-{[3-[4–(3-(3,4-dimethoxyphenyl)acryloyl)piperazine-1-carbonyl]-4-fluorophenyl]methyl}-2H-phthalazin-1-one]",77.2 ± 3.89,41.2 ± 1.95,17.8 ± 0.72,45.2 ± 1.38,–,–,–,–
"O=C(/C=C/c1cccc([N+](=O)[O-])c1)N1CCN(C(=O)c2cc(Cc3n[nH]c(=O)c4ccccc34)ccc2F)CC1 [5l, (E)-4-{[3-[4–(3-(3-nitrophenyl)acryloyl)piperazine-1-carbonyl]-4-fluorophenyl]methyl} -2H -phthalazin-1-one]",95.7 ± 4.35,11.6 ± 2.15,9.16 ± 0.91,24.6 ± 1.1,16.1 ± 1.25,–,–,–

# — PMC6237161, “Synthesis, preliminarily biological evaluation and molecular docking study of new Olaparib analogues as multifunctional PARP-1 and cholinesterase inhibitors” (Journal of Enzyme Inhibition and Medicinal Chemistry, 2018)
